Here are results for 17 compounds from patent US20200002354A1, “HEXAHYDROPYRAZINOBENZ- OR -PYRIDO-OXAZEPINES CARRYING AN OXYGEN-CONTAINING SUBSTITUENT AND USE THEREOF IN THE TREATMENT OF 5-HT2C-DEPENDENT DISORDERS” (AbbVie Deutschland GmbH & Co. KG, priority 2015, published 2020).

The term EC50 denotes the concentration giving half of the maximal effect. As a reminder, the Emax is the greatest response seen or fitted, relative to the assay's reference.

One data set has as its target T1, human 5-HT2A receptor (Homo sapiens, UniProt P28223).
T1 construct: expressed in transfected cells; host or cells: CHO-K1
In words: Human 5-HT2A functional assay (calcium mobilisation in CHO-K1 cells, FLIPR). It is filed as cell-based. As to conditions: based on agonism: EC50 5-HT2A/EC50 5-HT2C. The procedure, abridged: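 CHO-K1 cells stably expressing human 5-HT2A, serum-starved overnight and loaded with calcium dye plus 0.07% probenecid, were given compound (10^−10 to 10^−5 M) for agonism, then serotonin at 3×10^−8 M after 8 min for antagonism. FLIPR calcium responses were normalised to serotonin maximum, and EC50/IC50 came from four-parameter fits, with Kb via Cheng–Prusoff.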
In general terms: A change in cytosolic calcium serves as a functional read-out for many receptors and channels.

In another data set the target is T2, human 5-HT2B receptor (Homo sapiens, UniProt P41595).
T2 construct: expressed in transfected cells; host or cells: CHO-FlpIn
T2 sequence (P41595 whole entry): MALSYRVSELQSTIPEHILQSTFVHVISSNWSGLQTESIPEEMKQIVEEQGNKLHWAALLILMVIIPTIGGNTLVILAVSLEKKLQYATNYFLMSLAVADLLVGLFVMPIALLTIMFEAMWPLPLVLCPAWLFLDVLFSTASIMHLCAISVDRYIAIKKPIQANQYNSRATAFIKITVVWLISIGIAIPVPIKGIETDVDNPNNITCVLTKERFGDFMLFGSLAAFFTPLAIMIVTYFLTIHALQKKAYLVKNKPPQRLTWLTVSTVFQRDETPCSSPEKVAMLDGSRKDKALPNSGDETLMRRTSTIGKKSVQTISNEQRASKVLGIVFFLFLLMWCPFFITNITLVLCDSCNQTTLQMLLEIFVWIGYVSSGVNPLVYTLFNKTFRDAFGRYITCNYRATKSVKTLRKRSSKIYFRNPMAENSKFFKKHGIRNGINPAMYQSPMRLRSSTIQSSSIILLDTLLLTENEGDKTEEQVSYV
The experiment in a line: Human 5-HT2B functional assay (calcium mobilisation in CHO-FlpIn cells, FLIPR). It is filed as cell-based. As to conditions: based on agonism: EC50 5-HT2B/EC50 5-HT2C. The procedure, abridged:
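CHO-FlpIn cells stably expressing human 5-HT2B, serum-starved 4 h and Ca5 dye-loaded, received compound (10^−10 to 10^−5 M) for agonism, then 10^−8 M serotonin after 8 min for antagonism; peak calcium read by FLIPR. Efficacy as % serotonin maximum; EC50/IC50 from four-parameter fits, Kb via Cheng–Prusoff.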

For a further data set, the target named is T3, 5-HT2C receptor (Homo sapiens, UniProt P28335).
T3 construct: host or cells: U2OS
T3 sequence (P28335 33-458): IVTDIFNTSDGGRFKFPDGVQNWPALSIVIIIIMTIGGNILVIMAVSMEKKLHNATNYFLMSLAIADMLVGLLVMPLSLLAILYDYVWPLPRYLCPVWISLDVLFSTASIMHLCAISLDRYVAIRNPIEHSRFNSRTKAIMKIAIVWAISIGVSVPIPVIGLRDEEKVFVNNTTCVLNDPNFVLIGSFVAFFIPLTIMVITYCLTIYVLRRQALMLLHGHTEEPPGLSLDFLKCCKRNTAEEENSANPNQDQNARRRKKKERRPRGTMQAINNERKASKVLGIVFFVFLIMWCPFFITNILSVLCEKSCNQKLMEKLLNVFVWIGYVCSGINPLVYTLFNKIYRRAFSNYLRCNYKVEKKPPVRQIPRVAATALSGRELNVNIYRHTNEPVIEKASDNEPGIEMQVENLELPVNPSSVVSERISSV
T3 sequence (P32121 whole entry partner): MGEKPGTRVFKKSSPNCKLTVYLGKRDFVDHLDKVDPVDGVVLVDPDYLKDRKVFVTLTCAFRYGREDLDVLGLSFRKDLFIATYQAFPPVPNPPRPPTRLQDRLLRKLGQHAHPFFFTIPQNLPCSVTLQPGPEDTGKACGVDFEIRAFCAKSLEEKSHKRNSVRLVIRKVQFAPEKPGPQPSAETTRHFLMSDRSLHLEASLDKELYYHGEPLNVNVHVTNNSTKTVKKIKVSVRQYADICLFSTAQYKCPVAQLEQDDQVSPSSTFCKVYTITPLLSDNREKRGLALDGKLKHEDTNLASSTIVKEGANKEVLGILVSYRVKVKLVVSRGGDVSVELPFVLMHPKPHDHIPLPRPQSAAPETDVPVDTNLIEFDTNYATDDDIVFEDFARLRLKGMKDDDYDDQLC
In words: Human 5-HT2C functional assay (beta-arrestin2 recruitment, U2OS_HTR2C_β-Arrestin cells). It is filed as cell-based. As to conditions: for EC50: Potency (EC50 5-HT2C) in functional assay, agonism, read-out: EC50 5-HT2C; for Emax: relative efficacy vs maximal effect induced by 5-HT (defined as 100%). The essentials:
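U2OS cells expressing human 5-HT2C with β-arrestin2 enzyme-fragment complementation; switched to 1% serum medium 24 h after plating, compounds added next day for 1.5 h. β-Galactosidase activity read by chemiluminescence; response expressed as percent of 10 μM 5-HT or maximal 5-HT effect (relative efficacy).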
For orientation: Arrestin recruitment assays detect the binding of arrestin to an activated receptor.

The nature of data set [1]: Metabolic stability in human liver microsomes, unbound intrinsic clearance. It is filed as in vitro ADME. As to conditions: liver microsomes, pH 7.4; unbound intrinsic clearance (human); Clint unbound = Cl int/fu mic; read-out: Cl int, mic unb. (h). The essentials: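 Compound at 0.5 μM incubated with human liver microsomes (0.25 mg/mL) in 0.05 M potassium phosphate pH 7.4 at 37° C, started with 1.0 mM NADPH; sampled 0–30 min, parent quantified by LC-MS/MS. First-order t1/2 gives CLint (uL/min/mg), scaled to L/h/kg; unbound CLint = CLint/fu mic.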

T1 sequence (P28223 whole entry): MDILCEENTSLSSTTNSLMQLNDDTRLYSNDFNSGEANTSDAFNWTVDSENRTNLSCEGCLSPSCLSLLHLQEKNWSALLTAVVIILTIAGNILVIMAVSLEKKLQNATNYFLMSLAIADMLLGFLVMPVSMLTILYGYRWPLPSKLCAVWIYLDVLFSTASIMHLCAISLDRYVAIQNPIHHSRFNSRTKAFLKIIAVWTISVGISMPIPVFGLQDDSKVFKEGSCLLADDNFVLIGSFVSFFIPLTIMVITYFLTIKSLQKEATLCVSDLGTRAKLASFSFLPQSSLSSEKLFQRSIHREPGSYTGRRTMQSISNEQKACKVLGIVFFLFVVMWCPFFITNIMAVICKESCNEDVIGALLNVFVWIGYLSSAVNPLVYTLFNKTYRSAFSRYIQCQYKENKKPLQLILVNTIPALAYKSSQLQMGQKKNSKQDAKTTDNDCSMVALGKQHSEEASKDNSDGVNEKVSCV

Regarding `COC[C@@H]1C[C@@H]2CNCCN2c2c(F)c(F)cc(C#N)c2O1.Cl` [Example 28, (4aR,6S)-10,11-Difluoro-6-(methoxymethyl)-2,3,4,4a,5,6-hexahydro-1H-pyrazino[2,1-d][1,5]benzoxazepine-8-carbonitrile hydrochloride], the “Selectivity over 5-HT2A” value on human 5-HT2A receptor is “++ (from >30 to 100)”. Also, on human 5-HT2B receptor, the “Selectivity over 5-HT2B” value is recorded as “+ (from 10 to 30)”. On 5-HT2C receptor, the EC50 lay in the range of 20 to 200 nM and the maximum response (Emax) was over 70%. Also, the CLint scaled at 0.5 μM in data set [1] was under 83.3 mL/min/kg.
In the case of `COC[C@@H]1C[C@@H]2CNCCN2c2c(F)c(OC)cc(C(F)F)c2O1.Cl` [Example 29, (4aR,6S)-8-(Difluoromethyl)-11-fluoro-10-methoxy-6-(methoxymethyl)-2,3,4,4a,5,6-hexahydro-1H-pyrazino[2,1-d][1,5]benzoxazepine hydrochloride], the “Selectivity over 5-HT2A” value at human 5-HT2A receptor was “+++ (>100)”. Besides, the “Selectivity over 5-HT2B” value on human 5-HT2B receptor is listed as “+++ (>100)”. In addition, on 5-HT2C receptor, the EC50 was in the range of 20 to 200 nM and the Emax was over 70%. Moreover, in data set [1], the CLint scaled at 0.5 μM lay within 83.3 to 833 mL/min/kg.
For the compound `COC[C@@H]1C[C@@H]2CNCCN2c2ccc(C)c(F)c2O1` [Example 30, (4aR,6S)-8-Fluoro-6-(methoxymethyl)-9-methyl-2,3,4,4a,5,6-hexahydro-1H-pyrazino[2,1-d][1,5]benzoxazepine], on human 5-HT2A receptor, the “Selectivity over 5-HT2A” value is recorded as “++ (from >30 to 100)”. The “Selectivity over 5-HT2B” value on human 5-HT2B receptor is on record as “++ (from >30 to 100)”. Further, at 5-HT2C receptor, the EC50 was 20 to 200 nM and the maximal response (Emax) was 50 to 70%. In addition, the CLint scaled at 0.5 μM in data set [1] was under 83.3 mL/min/kg.
`COC[C@@H]1C[C@@H]2CNCCN2c2cc(Cl)c(F)cc2O1.Cl` [Example 31, (4aR,6S)-10-Chloro-9-fluoro-6-(methoxymethyl)-2,3,4,4a,5,6-hexahydro-1H-pyrazino[2,1-d][1,5]benzoxazepine hydrochloride]: the “Selectivity over 5-HT2A” value on human 5-HT2A receptor is given as “++ (from >30 to 100)”. On human 5-HT2B receptor, the “Selectivity over 5-HT2B” value is reported as “++ (from >30 to 100)”. On 5-HT2C receptor, the EC50 was 20 to 200 nM and the Emax lay within 30 to 50%. Also, in data set [1], the CLint scaled at 0.5 μM was under 83.3 mL/min/kg.
On to `COC[C@H]1C[C@@H]2CNCCN2c2cc(F)cc(C(F)F)c2O1.Cl` [Example 32, (4aR,6R)-8-(Difluoromethyl)-10-fluoro-6-(methoxymethyl)-2,3,4,4a,5,6-hexahydro-1H-pyrazino[2,1-d][1,5]benzoxazepine hydrochloride], for which the “Selectivity over 5-HT2A” value on human 5-HT2A receptor is recorded as “++ (from >30 to 100)”. At human 5-HT2B receptor, the “Selectivity over 5-HT2B” value was “++ (from >30 to 100)”. Further, on 5-HT2C receptor, the EC50 is 200 to 1000 nM and the maximal response (Emax) is over 70%. Also, the CLint scaled at 0.5 μM in data set [1] was under 83.3 mL/min/kg.
For the compound `COC[C@@H]1C[C@@H]2CNCCN2c2cc(C)cc(F)c2O1` [Example 33, (4aR,6S)-8-Fluoro-6-(methoxymethyl)-10-methyl-2,3,4,4a,5,6-hexahydro-1H-pyrazino[2,1-d][1,5]benzoxazepine], the “Selectivity over 5-HT2A” value on human 5-HT2A receptor is on record as “+ (from 10 to 30)”. In addition, the “Selectivity over 5-HT2B” value on human 5-HT2B receptor was “+ (from 10 to 30)”. On 5-HT2C receptor, the EC50 fell in the range of 200 to 1000 nM and the maximal response (Emax) fell in the range of 50 to 70%. In addition, in data set [1], the CLint scaled at 0.5 μM is under 83.3 mL/min/kg.
In the case of `C#Cc1cc(F)cc2c1O[C@H](COC)C[C@@H]1CNCCN21.Cl` [Example 34, (4aR,6S)-8-Ethynyl-10-fluoro-6-(methoxymethyl)-2,3,4,4a,5,6-hexahydro-1H-pyrazino[2,1-d][1,5]benzoxazepine hydrochloride], the “Selectivity over 5-HT2A” value on human 5-HT2A receptor is given as “+++ (>100)”. At human 5-HT2B receptor, the “Selectivity over 5-HT2B” value is “+ (from 10 to 30)”. Also, on 5-HT2C receptor, the EC50 is under 20 nM and the maximal response (Emax) is over 70%. Moreover, the CLint scaled at 0.5 μM in data set [1] is under 83.3 mL/min/kg.
The corresponding values for `COC[C@H]1C[C@@H]2CNCCN2c2cc(F)cc(Cl)c2O1.Cl` [Example 35, (4aR,6R)-8-Chloro-10-fluoro-6-(methoxymethyl)-2,3,4,4a,5,6-hexahydro-1H-pyrazino[2,1-d][1,5]benzoxazepine hydrochloride] are “++ (from >30 to 100)”, “+ (from 10 to 30)”, 20 to 200 nM, over 70% and under 83.3 mL/min/kg.
In the case of `C#Cc1cc(F)c2c(c1)N1CCNC[C@H]1C[C@@H](COC)O2.O=C(O)C(O)C(O)C(=O)O` [Example 36, (4aR,6S)-10-Ethynyl-8-fluoro-6-(methoxymethyl)-2,3,4,4a,5,6-hexahydro-1H-pyrazino[2,1-d][1,5]benzoxazepine; (2R,3R)-2,3-dihydroxybutanedioic acid], the “Selectivity over 5-HT2A” value on human 5-HT2A receptor was “+ (from 10 to 30)”. Also, at human 5-HT2B receptor, the “Selectivity over 5-HT2B” value is given as “+ (from 10 to 30)”. For the same compound, on 5-HT2C receptor, the EC50 lay in the range of 200 to 1000 nM and the Emax was 50 to 70%. Further, the CLint scaled at 0.5 μM in data set [1] was in the range of 83.3 to 833 mL/min/kg.
With `COC[C@H]1C[C@@H]2CNCCN2c2c(F)c(F)cc(Cl)c2O1.Cl` [Example 37, (4aR,6R)-8-Chloro-10,11-difluoro-6-(methoxymethyl)-2,3,4,4a,5,6-hexahydro-1H-pyrazino[2,1-d][1,5]benzoxazepine hydrochloride], the “Selectivity over 5-HT2A” value on human 5-HT2A receptor was “+ (from 10 to 30)”. Moreover, the “Selectivity over 5-HT2B” value on human 5-HT2B receptor is listed as “+ (from 10 to 30)”. In addition, at 5-HT2C receptor, the EC50 lay within 200 to 1000 nM and the Emax is 30 to 50%. Moreover, the CLint scaled at 0.5 μM in data set [1] was under 83.3 mL/min/kg.
`COC[C@@H]1C[C@@H]2CNCCN2c2cc(F)c(F)c(Cl)c2O1.Cl` [Example 38, (4aR,6S)-8-Chloro-9,10-difluoro-6-(methoxymethyl)-2,3,4,4a,5,6-hexahydro-1H-pyrazino[2,1-d][1,5]benzoxazepine hydrochloride]: the “Selectivity over 5-HT2A” value at human 5-HT2A receptor is reported as “++ (from >30 to 100)”. On human 5-HT2B receptor, the “Selectivity over 5-HT2B” value was “++ (from >30 to 100)”. Also, at 5-HT2C receptor, the EC50 was under 20 nM and the Emax was over 70%. For the same compound, the CLint scaled at 0.5 μM in data set [1] is under 83.3 mL/min/kg.
Turning to `Cc1ccc2c(c1F)O[C@H](CO)C[C@@H]1CNCCN21` [Example 39, [(4aR,6S)-8-Fluoro-9-methyl-2,3,4,4a,5,6-hexahydro-1H-pyrazino[2,1-d][1,5]benzoxazepin-6-yl]methanol], on human 5-HT2A receptor, the “Selectivity over 5-HT2A” value is “++ (from >30 to 100)”. In addition, the “Selectivity over 5-HT2B” value on human 5-HT2B receptor is given as “++ (from >30 to 100)”. On 5-HT2C receptor, the EC50 lay within 20 to 200 nM and the Emax lay in the range of 50 to 70%. Besides, the CLint scaled at 0.5 μM in data set [1] was under 83.3 mL/min/kg.
As for `C#Cc1cc(F)c(F)c2c1O[C@H](COC)C[C@@H]1CNCCN21.Cl` [Example 40, (4aR,6S)-8-Ethynyl-10,11-difluoro-6-(methoxymethyl)-2,3,4,4a,5,6-hexahydro-1H-pyrazino[2,1-d][1,5]benzoxazepine hydrochloride], the “Selectivity over 5-HT2A” value at human 5-HT2A receptor is on record as “+++ (>100)”. The “Selectivity over 5-HT2B” value on human 5-HT2B receptor is “+ (from 10 to 30)”. For the same compound, at 5-HT2C receptor, the EC50 was under 20 nM and the maximal response (Emax) was over 70%. Moreover, in data set [1], the CLint scaled at 0.5 μM was under 83.3 mL/min/kg.
The corresponding values for `COC[C@@H]1C[C@@H]2CNCCN2c2cc(C(F)(F)F)cc(Cl)c2O1` [Example 45, (4aR,6S)-8-Chloro-6-(methoxymethyl)-10-(trifluoromethyl)-2,3,4,4a,5,6-hexahydro-1H-pyrazino[2,1-d][1,5]benzoxazepine] are “+++ (>100)”, “+++ (>100)”, 20 to 200 nM, over 70% and 83.3 to 833 mL/min/kg.
The like results for `COC[C@@H]1C[C@@H]2CNCCN2c2c(cc(F)c(F)c2F)O1.Cl` [Example 47, (4aR,6S)-9,10,11-Trifluoro-6-(methoxymethyl)-2,3,4,4a,5,6-hexahydro-1H-pyrazino[2,1-d][1,5]benzoxazepine hydrochloride] were, in that order, “+++ (>100)”, “+++ (>100)”, 20 to 200 nM, over 70% and under 83.3 mL/min/kg.
Take `COC[C@@H]1C[C@@H]2CNCCN2c2ccc(F)cc2O1.Cl` [Example 51, (4aR,6S)-9-Fluoro-6-(methoxymethyl)-2,3,4,4a,5,6-hexahydro-1H-pyrazino[2,1-d][1,5]benzoxazepine hydrochloride]: the “Selectivity over 5-HT2A” value on human 5-HT2A receptor is reported as “+ (from 10 to 30)”. Further, the “Selectivity over 5-HT2B” value at human 5-HT2B receptor is “++ (from >30 to 100)”. In addition, on 5-HT2C receptor, the EC50 lay in the range of 200 to 1000 nM and the Emax lay in the range of 50 to 70%. Further, the CLint scaled at 0.5 μM in data set [1] is under 83.3 mL/min/kg.
The corresponding values for `COC[C@@H]1C[C@@H]2CNCCN2c2cc(Cl)cc(Cl)c2O1` [Example 52, (4aR,6S)-8,10-Dichloro-6-(methoxymethyl)-2,3,4,4a,5,6-hexahydro-1H-pyrazino[2,1-d][1,5]benzoxazepine] are “+++ (>100)”, “++ (from >30 to 100)”, 20 to 200 nM, over 70% and under 83.3 mL/min/kg.
